Measured values taken from the supplement of paper PMC10883282.

What was measured:
Assay in all cases: relative viability vs DMSO control (72 h) (fraction); higher = more viable cells
[1] = system: SK-LMS-1
In short: (§1)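 Sarcoma cell lines were grown in 384-well plates seeded toward 80–90% confluence and exposed 24 h later to serially diluted compound. After 72 h at 37 °C and 5% CO2, with 0.1% DMSO vehicle and a 5 µM positive control on the plates, ATPLite was read. Relative viability, given as percent growth averaged over up to triplicate wells, was rescaled so that 1 is full and 0 is none.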

[2] = system: G401
In short: as §1

[3] = system: RD-ES
In short: as §1

[4] = system: KHOS-NP
In short: as §1

[5] = system: SW872
In short: as §1

[6] = system: MES-SA
In short: as §1

[7] = system: VA-ES-BJ
In short: as §1

[8] = system: SW1353
In short: as §1

[9] = system: HT1080
In short: as §1

[10] = system: RD
In short: as §1

[11] = system: SW684
In short: as §1

[12] = system: SK-ES-1
In short: as §1

CCN(CCCOc1ccc2c(Nc3cc(CC(=O)Nc4cccc(F)c4)[nH]n3)ncnc2c1)CCOP(=O)(O)O [Barasertib]
Details | relative viability
[1], 0.00017 µM | 1.02
[1], 0.00051 µM | 1.02
[1], 0.00152 µM | 1.03
[1], 0.00457 µM | 1
[1], 0.01372 µM | 1.06
[1], 0.04115 µM | 1.01
[1], 0.1235 µM | 0.917
[1], 0.3704 µM | 0.855
[1], 1.111 µM | 0.904
[1], 3.333 µM | 0.887
[1], 10 µM | 0.867
[2], 0.00017 µM | 0.961
[2], 0.00051 µM | 0.998
[2], 0.00152 µM | 0.996
[2], 0.00457 µM | 0.97
[2], 0.01372 µM | 0.897
[2], 0.04115 µM | 0.798
[2], 0.1235 µM | 0.777
[2], 0.3704 µM | 0.8003
[2], 1.111 µM | 0.799
[2], 3.333 µM | 0.776
[2], 10 µM | 0.677
[3], 0.00017 µM | 0.994
[3], 0.00051 µM | 0.974
[3], 0.00152 µM | 0.984
[3], 0.00457 µM | 0.951
[3], 0.01372 µM | 0.746
[3], 0.04115 µM | 0.156
[3], 0.1235 µM | 0.143
[3], 0.3704 µM | 0.14
[3], 1.111 µM | 0.131
[3], 3.333 µM | 0.117
[3], 10 µM | 0.127
[4], 0.00017 µM | 1.03
[4], 0.00051 µM | 1.03
[4], 0.00152 µM | 1.04
[4], 0.00457 µM | 1.048
[4], 0.01372 µM | 1.05
[4], 0.04115 µM | 1.072
[4], 0.1235 µM | 1.08
[4], 0.3704 µM | 1.09
[4], 1.111 µM | 1.11
[4], 3.333 µM | 1.12
[4], 10 µM | 1.13
[5], 0.00017 µM | 1.01
[5], 0.00051 µM | 1.01
[5], 0.00152 µM | 0.9782
[5], 0.00457 µM | 0.985
[5], 0.01372 µM | 0.975
[5], 0.04115 µM | 0.962
[5], 0.1235 µM | 0.897
[5], 0.3704 µM | 0.918
[5], 1.111 µM | 0.912
[5], 3.333 µM | 0.892
[5], 10 µM | 0.8645
[6], 0.00017 µM | 0.92
[6], 0.00051 µM | 0.915
[6], 0.00152 µM | 0.911
[6], 0.00457 µM | 0.892
[6], 0.01372 µM | 0.692
[6], 0.04115 µM | 0.448
[6], 0.1235 µM | 0.448
[6], 0.3704 µM | 0.447
[6], 1.111 µM | 0.436
[6], 3.333 µM | 0.444
[6], 10 µM | 0.398
[7], 0.00017 µM | 1.01
[7], 0.00051 µM | 1.01
[7], 0.00152 µM | 0.986
[7], 0.00457 µM | 0.998
[7], 0.01372 µM | 0.84
[7], 0.04115 µM | 0.634
[7], 0.1235 µM | 0.619
[7], 0.3704 µM | 0.647
[7], 1.111 µM | 0.689
[7], 3.333 µM | 0.68
[7], 10 µM | 0.727
[8], 0.00017 µM | 0.955
[8], 0.00051 µM | 0.972
[8], 0.00152 µM | 0.939
[8], 0.00457 µM | 0.985
[8], 0.01372 µM | 0.867
[8], 0.04115 µM | 0.841
[8], 0.1235 µM | 0.842
[8], 0.3704 µM | 0.812
[8], 1.111 µM | 0.823
[8], 3.333 µM | 0.82
[8], 10 µM | 0.8463
[9], 0.00017 µM | 1.05
[9], 0.00051 µM | 1.04
[9], 0.00152 µM | 1.04
[9], 0.00457 µM | 1.04
[9], 0.01372 µM | 1.02
[9], 0.04115 µM | 0.977
[9], 0.1235 µM | 0.878
[9], 0.3704 µM | 0.89
[9], 1.111 µM | 0.9017
[9], 3.333 µM | 0.895
[9], 10 µM | 0.87
[10], 0.00017 µM | 1.09
[10], 0.00051 µM | 1.09
[10], 0.00152 µM | 1.1
[10], 0.00457 µM | 1.06
[10], 0.01372 µM | 0.943
[10], 0.04115 µM | 0.888
[10], 0.1235 µM | 0.869
[10], 0.3704 µM | 0.84
[10], 1.111 µM | 0.803
[10], 3.333 µM | 0.759
[10], 10 µM | 0.681
[11], 0.00017 µM | 1.11
[11], 0.00051 µM | 1.11
[11], 0.00152 µM | 1.15
[11], 0.00457 µM | 1.15
[11], 0.01372 µM | 1.12
[11], 0.04115 µM | 1.04
[11], 0.1235 µM | 1.06
[11], 0.3704 µM | 1.11
[11], 1.111 µM | 1.08
[11], 3.333 µM | 0.977
[11], 10 µM | 0.816
[12], 0.00017 µM | 1.05
[12], 0.00051 µM | 1.09
[12], 0.00152 µM | 1.04
[12], 0.00457 µM | 0.98
[12], 0.01372 µM | 0.237
[12], 0.04115 µM | 0.065
[12], 0.1235 µM | 0.0636
[12], 0.3704 µM | 0.0641
[12], 1.111 µM | 0.061
[12], 3.333 µM | 0.0649
[12], 10 µM | 0.0658
